Measured values taken from ChEMBL document CHEMBL2074506, “Effects of ursodeoxycholic and cholic acid feeding on hepatocellular transporter expression in mouse liver” (Gastroenterology, 2001).

Columns and labels:
Type in all cases: functional, organism-based
[1] = molecular target: T1, ATP-binding cassette sub-family C member 2 (Mus musculus, UniProt Q8VI47); assay: TP_TRANSPORTER: RT-PCR (mRNA level: 3 fold) in vivo, liver of Him OF1 mouse
[2] = molecular target: T2, ATP-dependent translocase ABCB1 (Mus musculus, UniProt P21447); assay: TP_TRANSPORTER: RT-PCR (mRNA level: 2 fold) in vivo, liver of Him OF1 mouse
[3] = molecular target: T2, ATP-dependent translocase ABCB1; assay: TP_TRANSPORTER: Western (protein level: increase to 220%) in vivo, liver of Him OF1 mouse
[4] = molecular target: T3, Solute carrier organic anion transporter family member 1A1 (Mus musculus, UniProt Q9QXZ6); assay: TP_TRANSPORTER: Western (protein level: reduction to 45% of control) in vivo, liver of Him OF1 mouse
T3 sequence (Q9QXZ6 whole entry): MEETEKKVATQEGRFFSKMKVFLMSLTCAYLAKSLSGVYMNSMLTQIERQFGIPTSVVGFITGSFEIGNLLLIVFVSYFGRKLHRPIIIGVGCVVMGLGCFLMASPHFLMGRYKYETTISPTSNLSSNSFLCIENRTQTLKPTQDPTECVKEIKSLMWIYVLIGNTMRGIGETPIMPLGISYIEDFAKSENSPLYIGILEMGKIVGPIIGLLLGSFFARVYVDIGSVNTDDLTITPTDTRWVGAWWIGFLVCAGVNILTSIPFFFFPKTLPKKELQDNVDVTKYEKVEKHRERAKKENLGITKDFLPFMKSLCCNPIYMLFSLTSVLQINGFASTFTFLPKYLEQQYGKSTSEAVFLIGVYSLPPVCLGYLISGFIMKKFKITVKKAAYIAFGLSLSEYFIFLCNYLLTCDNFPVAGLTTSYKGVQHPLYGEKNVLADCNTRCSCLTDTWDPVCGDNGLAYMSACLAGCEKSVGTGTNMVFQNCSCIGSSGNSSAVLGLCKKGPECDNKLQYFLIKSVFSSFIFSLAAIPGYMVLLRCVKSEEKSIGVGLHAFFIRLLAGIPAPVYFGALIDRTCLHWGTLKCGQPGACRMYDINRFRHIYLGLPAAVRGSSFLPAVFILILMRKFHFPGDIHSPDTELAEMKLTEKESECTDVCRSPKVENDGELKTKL

[5] = molecular target: T1, ATP-binding cassette sub-family C member 2; assay: TP_TRANSPORTER: Western (protein level: increase to 350%) in vivo, liver of Him OF1 mouse
[6] = molecular target: T3, Solute carrier organic anion transporter family member 1A1; assay: TP_TRANSPORTER: RT-PCR (mRNA level: reduction to 72 % of control) in vivo, liver of Him OF1 mouse

T2 sequence (P21447 whole entry): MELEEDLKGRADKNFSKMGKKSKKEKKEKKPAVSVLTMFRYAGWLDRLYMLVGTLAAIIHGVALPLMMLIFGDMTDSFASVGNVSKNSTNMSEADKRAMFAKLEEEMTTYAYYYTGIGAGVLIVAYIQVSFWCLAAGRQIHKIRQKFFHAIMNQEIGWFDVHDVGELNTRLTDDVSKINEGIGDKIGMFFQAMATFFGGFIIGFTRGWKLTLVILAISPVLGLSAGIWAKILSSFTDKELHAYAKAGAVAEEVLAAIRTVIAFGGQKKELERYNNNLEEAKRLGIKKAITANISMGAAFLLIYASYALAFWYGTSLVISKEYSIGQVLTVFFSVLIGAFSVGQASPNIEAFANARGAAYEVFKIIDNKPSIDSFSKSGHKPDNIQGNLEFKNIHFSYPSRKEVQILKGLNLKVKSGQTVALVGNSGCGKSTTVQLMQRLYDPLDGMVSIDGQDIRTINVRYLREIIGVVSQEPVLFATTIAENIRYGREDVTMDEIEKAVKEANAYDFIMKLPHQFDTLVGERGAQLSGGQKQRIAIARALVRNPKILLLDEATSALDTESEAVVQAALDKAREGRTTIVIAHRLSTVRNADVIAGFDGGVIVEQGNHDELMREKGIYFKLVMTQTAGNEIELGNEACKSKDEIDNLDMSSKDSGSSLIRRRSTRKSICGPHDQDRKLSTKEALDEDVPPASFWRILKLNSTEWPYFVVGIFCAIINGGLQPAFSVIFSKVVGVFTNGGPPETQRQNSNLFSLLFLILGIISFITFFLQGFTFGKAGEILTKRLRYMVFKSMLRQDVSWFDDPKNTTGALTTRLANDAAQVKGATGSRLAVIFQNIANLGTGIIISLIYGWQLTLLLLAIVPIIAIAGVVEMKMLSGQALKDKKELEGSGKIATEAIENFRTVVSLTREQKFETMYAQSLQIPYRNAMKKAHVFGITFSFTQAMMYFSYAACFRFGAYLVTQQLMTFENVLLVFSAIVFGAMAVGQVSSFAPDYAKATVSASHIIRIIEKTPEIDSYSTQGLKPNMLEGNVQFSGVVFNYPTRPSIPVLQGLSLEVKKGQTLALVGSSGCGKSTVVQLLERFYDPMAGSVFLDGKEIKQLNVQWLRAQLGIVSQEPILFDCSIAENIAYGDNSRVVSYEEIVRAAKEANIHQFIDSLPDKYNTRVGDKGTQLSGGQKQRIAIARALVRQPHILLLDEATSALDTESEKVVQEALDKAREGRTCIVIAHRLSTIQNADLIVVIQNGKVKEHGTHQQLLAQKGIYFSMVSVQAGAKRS
T1 sequence (Q8VI47 whole entry): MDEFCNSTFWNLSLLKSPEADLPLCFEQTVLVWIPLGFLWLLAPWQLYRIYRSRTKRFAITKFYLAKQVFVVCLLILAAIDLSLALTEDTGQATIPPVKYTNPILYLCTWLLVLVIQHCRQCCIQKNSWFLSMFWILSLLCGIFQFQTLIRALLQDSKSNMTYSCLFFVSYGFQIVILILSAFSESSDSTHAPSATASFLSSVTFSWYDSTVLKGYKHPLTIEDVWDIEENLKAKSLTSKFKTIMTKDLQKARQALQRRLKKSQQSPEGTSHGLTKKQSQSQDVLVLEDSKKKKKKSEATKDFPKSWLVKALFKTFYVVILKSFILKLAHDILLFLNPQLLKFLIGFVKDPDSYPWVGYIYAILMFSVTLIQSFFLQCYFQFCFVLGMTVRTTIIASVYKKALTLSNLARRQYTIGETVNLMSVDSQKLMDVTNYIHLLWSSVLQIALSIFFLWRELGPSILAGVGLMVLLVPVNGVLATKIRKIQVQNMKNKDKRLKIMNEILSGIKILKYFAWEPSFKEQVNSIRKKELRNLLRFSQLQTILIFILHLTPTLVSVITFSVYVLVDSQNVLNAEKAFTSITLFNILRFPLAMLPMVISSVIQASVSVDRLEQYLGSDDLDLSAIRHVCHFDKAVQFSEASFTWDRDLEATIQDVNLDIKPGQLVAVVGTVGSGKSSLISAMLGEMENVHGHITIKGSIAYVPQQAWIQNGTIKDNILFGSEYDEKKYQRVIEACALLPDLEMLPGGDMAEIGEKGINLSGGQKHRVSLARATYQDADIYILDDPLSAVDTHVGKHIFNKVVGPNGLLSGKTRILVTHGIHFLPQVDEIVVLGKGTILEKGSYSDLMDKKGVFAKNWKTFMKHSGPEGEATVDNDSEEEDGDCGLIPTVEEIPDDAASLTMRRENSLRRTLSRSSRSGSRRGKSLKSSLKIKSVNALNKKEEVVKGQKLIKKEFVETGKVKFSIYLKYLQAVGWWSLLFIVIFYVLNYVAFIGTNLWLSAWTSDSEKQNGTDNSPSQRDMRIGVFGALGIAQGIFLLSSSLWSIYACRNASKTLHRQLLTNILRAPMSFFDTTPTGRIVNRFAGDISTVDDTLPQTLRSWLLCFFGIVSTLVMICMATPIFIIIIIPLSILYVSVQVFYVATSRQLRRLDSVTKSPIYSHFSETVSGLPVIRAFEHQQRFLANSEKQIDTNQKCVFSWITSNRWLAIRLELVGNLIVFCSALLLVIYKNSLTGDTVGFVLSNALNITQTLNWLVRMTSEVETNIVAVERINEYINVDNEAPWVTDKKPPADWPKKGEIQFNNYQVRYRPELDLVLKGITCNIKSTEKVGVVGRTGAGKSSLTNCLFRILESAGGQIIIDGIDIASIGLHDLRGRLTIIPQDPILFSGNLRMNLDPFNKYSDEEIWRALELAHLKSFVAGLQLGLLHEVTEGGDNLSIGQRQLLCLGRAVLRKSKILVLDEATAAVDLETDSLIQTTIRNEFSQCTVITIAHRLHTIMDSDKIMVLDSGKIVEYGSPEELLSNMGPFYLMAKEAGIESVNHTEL

With C[C@H](CCC(=O)O)[C@H]1CC[C@H]2[C@@H]3[C@@H](O)C[C@@H]4C[C@H](O)CC[C@]4(C)[C@H]3CC[C@]12C [URSODIOL] the Activity [1] was “inducer [+]”, the Activity [2] was “inducer [+]” and the Activity [3] was “inducer [+]”. For the same compound, the Activity [4] was “inducer [Decrease]”, the Activity [5] was “inducer [+]” and the Activity [6] was “inducer [Decrease]”.
